Tests used:
[1] = molar heat capacity at constant pressure; settings: 101.33 kPa, Liquid, Small sample (50 mg) DSC
[2] = 303.15 K; 101.33 kPa; Liquid; Vibrating tube method
[3] = excess molar enthalpy (molar enthalpy of mixing); xn = mol fraction of the nth substance listed; settings: 303.15 K, 101 kPa, Liquid, Flow calorimetry
[4] = molar heat capacity at constant pressure; xn = mol fraction of the nth substance listed; settings: 303.15 K, 101 kPa, Liquid, Small sample (50 mg) DSC

CCCCO [butan-1-ol]
[1]
Settings	molar heat capacity at constant pressure [J/K/mol]
288.15 K	166.2
293.15 K	171.8
298.15 K	175.3
303.15 K	178.9
308.15 K	182.8
313.15 K	186.6
318.15 K	190.8
323.15 K	194.7

Settings	mass density [kg/m3]
[2]	801.98

CCCCCCCCCCO [decan-1-ol]
[1]
Settings	molar heat capacity at constant pressure [J/K/mol]
288.15 K	360.1
293.15 K	368.5
298.15 K	373.9
303.15 K	379.3
308.15 K	385.3
313.15 K	390.6
318.15 K	395.9
323.15 K	401.3

Settings	mass density [kg/m3]
[2]	822.95

CCCCCCCCCCO [decan-1-ol] + C[S+](C)[O-]
Settings	excess molar enthalpy [kcal/mol]	molar heat capacity at constant pressure [J/K/mol]
[3], x2 = 0.1006	0.111	–
[3], x2 = 0.1828	0.209	–
[3], x2 = 0.2512	0.277	–
[3], x2 = 0.3091	0.317	–
[3], x2 = 0.4016	0.353	–
[3], x2 = 0.4722	0.364	–
[3], x2 = 0.573	0.36	–
[3], x2 = 0.6414	0.353	–
[3], x2 = 0.7286	0.328	–
[3], x2 = 0.8011	0.301	–
[3], x2 = 0.843	0.271	–
[3], x2 = 0.8895	0.228	–
[3], x2 = 0.9148	0.196	–
[3], x2 = 0.9416	0.15	–
[3], x2 = 0.9555	0.118	–
[3], x2 = 0.9699	0.0846	–
[3], x2 = 0.9847	0.0457	–
[4], x2 = 0.0868	–	355.3
[4], x2 = 0.1641	–	338
[4], x2 = 0.2592	–	316.3
[4], x2 = 0.4231	–	282.4
[4], x2 = 0.5259	–	259.2
[4], x2 = 0.6431	–	235.2
[4], x2 = 0.7082	–	221.4
[4], x2 = 0.7997	–	201
[4], x2 = 0.8618	–	186.2
[4], x2 = 0.8908	–	179.2
[4], x2 = 0.9159	–	172.9
[4], x2 = 0.9596	–	162.1

C[S+](C)[O-] [dimethyl sulfoxide]
[1]
Settings	molar heat capacity at constant pressure [J/K/mol]
288.15 K	147.8
293.15 K	149.4
298.15 K	151.5
303.15 K	152.4
308.15 K	153.4
313.15 K	155.4
318.15 K	155.6
323.15 K	156.6

Settings	mass density [kg/m3]
[2]	1090.45

C[S+](C)[O-] [dimethyl sulfoxide] + CCCCO
Settings	excess molar enthalpy, [3] [kcal/mol]	molar heat capacity at constant pressure, [4] [J/K/mol]
x1 = 0.051	0.0715	–
x1 = 0.0874	–	175.2
x1 = 0.097	0.124	–
x1 = 0.1288	–	172.3
x1 = 0.1385	0.164	–
x1 = 0.1769	0.189	–
x1 = 0.2324	–	167
x1 = 0.2438	0.221	–
x1 = 0.3007	0.236	–
x1 = 0.364	–	161.2
x1 = 0.3921	0.255	–
x1 = 0.4541	–	158
x1 = 0.4622	0.254	–
x1 = 0.5633	0.245	–
x1 = 0.5775	–	155.4
x1 = 0.6568	–	152.7
x1 = 0.6594	0.223	–
x1 = 0.7207	0.201	151.6
x1 = 0.7577	–	150.8
x1 = 0.7947	0.171	–
x1 = 0.8377	0.144	–
x1 = 0.8537	–	150.3
x1 = 0.8856	0.112	–
x1 = 0.9117	0.0901	–
x1 = 0.919	–	150
x1 = 0.9393	0.0652	–
x1 = 0.9542	–	151.5
x1 = 0.9687	0.0356	–

C[S+](C)[O-] [dimethyl sulfoxide] + CCCO
Settings	excess molar enthalpy [kcal/mol]	molar heat capacity at constant pressure [J/K/mol]
[3], x1 = 0.0421	0.0449	–
[3], x1 = 0.0808	0.0803	–
[3], x1 = 0.1165	0.109	–
[3], x1 = 0.1495	0.134	–
[3], x1 = 0.2086	0.163	–
[3], x1 = 0.2601	0.184	–
[3], x1 = 0.3452	0.204	–
[3], x1 = 0.4127	0.21	–
[3], x1 = 0.5133	0.205	–
[3], x1 = 0.6128	0.189	–
[3], x1 = 0.6783	0.171	–
[3], x1 = 0.7598	0.136	–
[3], x1 = 0.8084	0.118	–
[3], x1 = 0.8634	0.0884	–
[3], x1 = 0.894	0.0722	–
[3], x1 = 0.9268	0.0521	–
[3], x1 = 0.962	0.0282	–
[4], x1 = 0.0514	–	146.2
[4], x1 = 0.1127	–	144
[4], x1 = 0.2114	–	141.8
[4], x1 = 0.3163	–	142.6
[4], x1 = 0.418	–	139.9
[4], x1 = 0.5029	–	140.6
[4], x1 = 0.6216	–	140.7
[4], x1 = 0.7068	–	141.6
[4], x1 = 0.7975	–	144.2
[4], x1 = 0.8537	–	145.6
[4], x1 = 0.8994	–	146.5
[4], x1 = 0.9429	–	147.6

C[S+](C)[O-] [dimethyl sulfoxide] + CCO
Settings	excess molar enthalpy [kcal/mol]	molar heat capacity at constant pressure [J/K/mol]
[3], x1 = 0.0332	0.0294	–
[3], x1 = 0.0642	0.0514	–
[3], x1 = 0.0933	0.0672	–
[3], x1 = 0.1207	0.0813	–
[3], x1 = 0.1707	0.0978	–
[3], x1 = 0.2154	0.109	–
[3], x1 = 0.2917	0.12	–
[3], x1 = 0.3543	0.122	–
[3], x1 = 0.4516	0.117	–
[3], x1 = 0.5527	0.106	–
[3], x1 = 0.6222	0.0949	–
[3], x1 = 0.7119	0.077	–
[3], x1 = 0.7671	0.0652	–
[3], x1 = 0.8317	0.0483	–
[3], x1 = 0.8682	0.0375	–
[3], x1 = 0.9081	0.0282	–
[3], x1 = 0.9518	0.0148	–
[4], x1 = 0.0356	–	117.9
[4], x1 = 0.0504	–	119.1
[4], x1 = 0.1092	–	121.7
[4], x1 = 0.1636	–	121.8
[4], x1 = 0.2647	–	124.6
[4], x1 = 0.3441	–	126.3
[4], x1 = 0.4469	–	129.9
[4], x1 = 0.557	–	133
[4], x1 = 0.6498	–	136.8
[4], x1 = 0.7615	–	141
[4], x1 = 0.8872	–	146.6
[4], x1 = 0.9408	–	148
